Columns and labels:
[1] = system: rat middle cerebral artery occlusion; test: Dose response test with rat (middle cerebral artery occlusion/reperfusion, infarct); type: in vivo, Crj:CD(SD) male rats
Procedure: Seven weeks to eight weeks old Crj:CD(SD) male rats (190 to 250 g) were subjected to anesthesia with isoflurane, and were fixed in a dorsal position with their body temperature kept at around 37° C. A catheter for drug administration was placed in the cervical vein. The right common carotid artery, external carotid artery and internal carotid artery were exposed and the common carotid artery and external carotid artery were ligated in order to occlude the middle cerebral artery. From the branch of the external carotid artery and the internal carotid artery, a silicone-coated No. 4 nylon suture (plug) was inserted to occlude the middle cerebral artery. Two hours after occlusion of the middle cerebral artery, the plug was taken out and perfusion of the middle cerebral artery was resumed, and then the administration was started as in Table 5. Decapitation and surgical removal of the brain were performed 24 hours after reperfusion. Five brain sections each having a thickness of 2 mm (from the bregma part, from 2 mm before and behind parts of the bregma, and from 4 mm before and behind parts of the bregma) were prepared. The brain sections were stained with 1 w/v % 2,3,5-triphenyltetrazolium chloride, and the infarct area was measured to calculate the infarct volume. […]

[2] = system: rat middle cerebral artery occlusion and reperfusion model; test: Cerebral edema in rat middle cerebral artery occlusion and reperfusion model; type: in vivo, Wistar rats
Procedure: After eight weeks to nine weeks old Wistar rats (220 to 260 g) were subjected to inhalation anesthesia with halothane, the inhalation anesthesia with 1% halothane (anesthesia; nitrous oxide: oxygen=7:3) was continued while fixing them in a dorsal position and maintaining their body temperature at around 37° C. In an infusion administration group and a bolus+infusion administration group, a catheter was placed in the femora vein. The right common carotid artery, external carotid artery and internal carotid artery were exposed and the common carotid artery and external carotid artery were ligated in order to occlude the middle cerebral artery. From the common carotid artery, a No. 4 nylon suture (plug) was inserted to occlude the middle cerebral artery. Three hours after occlusion of the middle cerebral artery, the plug was taken out from the common carotid artery and perfusion of the middle cerebral artery was resumed, and then the administration was started as in Table 3. Decapitation and surgical removal of the brain were performed three hours after reperfusion. After separation of the right and left cerebral cortex, the wet weight was measured. After drying at 130° C. for 24 hours, the dry weight was determined. A percentage water content was calculated in accordance with the following equation: (wet weight (g)−dry weight (g))/wet weight (g)×100. The constitution and dose of each group are shown below in Table 3. It is to be noted that to the drug administered groups other than the control group, Edaravone was administered as a drug in accordance with Table 3.

[3] = system: rat serum proteins; conditions: cited from earlier work
[4] = system: human serum proteins; conditions: cited from earlier work
[5] = system: monkey middle cerebral artery occlusion; test: Dose response test with monkey (middle cerebral artery occlusion, infarct); type: in vivo, croo monkey; conditions: Edaravone administered groups (0.1-0.4 mg/kg loading + 0.5-2.0 mg/kg/hr maintenance i.v.), 28 hours after occlusion
Procedure: A croo monkey (3 years to 5 years old) was subjected to […], and then its body temperature was kept at around 37° C. The middle cerebral artery at around the branch of the left internal carotid artery was exposed, and the middle cerebral artery was occluded by electrocoagulation. Then, the administration was started as in Table 6. 28 hours after occlusion (just after administration), the whole brain was removed under deep anesthesia by excess pentobarbital administration, and coronary brain sections each having a thickness of 4 mm were cut out of the forehead. The brain sections were stained with 1 w/v % 2,3,5-triphenyltetrazolium chloride, and the infarct area was measured to calculate the infarct volume.
In the drug administered groups other than the solvent group, Edaravone was used as the drug and this was administered as in Table 6.

CC1=NN(c2ccccc2)C(=O)C1 [Edaravone, 1-phenyl-3-methyl-2-pyrazolin-5-one]
infarct area ([1]; 0.1 mg/kg+0.5 mg/kg/hr i.v., P<0.05 vs physiological saline): significantly decreased
infarct volume compared with control group ([1]; Edaravone administered groups (0.05-0.2 mg/kg loading + 0.25-1.0 mg/kg/hr maintenance i.v.), 24 hours after reperfusion): small
increase in percentage water content of cortex ([2]; bolus group, 3 mg/kg i.v. immediately after reperfusion, brain removed 3 h after reperfusion): almost equal
increase in percentage water content of cortex ([2]; bolus+infusion group, 0.2 mg/kg i.v. + 1 mg/kg/hr i.v. for 2.75 hours): lowest
increase in percentage water content of cortex ([2]; infusion group, 1 mg/kg/hr i.v. for 3 hours after reperfusion): almost equal
binding ratio with serum proteins [3]: 85.8%
binding ratio with serum proteins [4]: 91.9%
infarct volume compared with control group [5]: small

From US9259416B2, “Pyrazolone compounds useful for treatment of cerebrovascular disorders associated with ischemic stroke” (MITSUBISHI TANABE PHARMA CORPORATION, priority 2004, dated 2016)
